In patent US11052043B2, “Sustained-release injectable formulation” (YISSUM RESEARCH DEVELOPMENT COMPANY OF THE HEBREW …, priority 2011, dated 2021):
Values after ≈ are worked out from the molar mass of the structure shown.

Columns and labels:
[1] = Minimum inhibitory concentration (MIC) of amoxicillin; assay type: cell-based; conditions: in vitro MIC multiplied by a factor of 4
[2] = cited from earlier work
[3] = cited from earlier work; remark: listed apart in the source

For CC1(C)S[C@@H]2[C@H](NC(=O)[C@H](N)c3ccc(O)cc3)C(=O)N2[C@H]1C(=O)O [amoxicillin], the “in vivo minimum inhibitory concentration (MIC) as set” value [1] is listed as 0.4 mg/L and the “MIC value determined in vitro” value [2] is listed as 0.1 mg/L (≈ 0.274 µM).
In the case of CCN1CCN(c2cc3c(cc2F)c(=O)c(C(=O)O)cn3C2CC2)CC1 [enrofloxacin], the solubility of enrofloxacin ([3]; 25° C.) is given as 0.25 % (w/v).
For C=CC1=C(C(=O)O)N2C(=O)[C@@H](NC(=O)/C(=N\O)c3csc(N)n3)[C@H]2SC1 [cefdinir], the solubility of cefdinir ([3]; 30° C.) is listed as 0.43 % (w/v).
